# Measured values taken from patent US7423153B2, “Crystalline forms of gatifloxacin” (Teva Pharmaceutical Industries Ltd., priority 2002, dated 2008).
# Tests used:
# [1] = Interconversion of crystalline forms by thermal treatment (XRD before and after heating); type: physicochemical
# Experimental: (§1) X-ray reflections reported herein were determined by the powder diffraction technique (PXRD). X-ray powder diffraction analysis was performed using a Scintag powder diffractometer with variable goniometer, a Cu source, and a solid state detector. A standard round aluminum sample holder with zero background quartz plate was used. Samples were scanned from 2° to 40° 2θ at 3° per minute. Reflections are reported as peak maxima in the Intensity vs. 2θ plots, and are subject to the normal experimental error (uncertainty) of ±0.2°. Wet samples were promptly analyzed “as is,” i.e., without drying or grinding prior to the analysis.
# Approximately 200 mg of several of the novel crystalline forms of the present invention, prepared as described in the foregoing examples, and several of the prior-art crystalline forms were subjected to various thermal treatments. The treatments and the results are described in Table II below
# 200 mg of gatifloxacin form E1 were heated to 100° C. for 1 hour. The XRD of the resulting sample was that of the omega form.
# [2] = Exposure to 80% relative humidity for 1 week (XRD, TGA, KF); type: physicochemical; settings: for crystal structure of resulting sample (XRD): 80% relative humidity for 1 week
# Experimental: as §1
# Thermogravimetric analysis (TGA) was performed using a Mettler TG50 thermobalance. Samples of 7 to 15 milligrams were analyzed at a heating rate of 10° C. per minute in the temperature range between about 25° C. and about 200° C.
# The water content (wt-% water) of crystalline forms of gatifloxacin reported herein was determined by the Karl-Fisher method. Water content of solutions was likewise determined by the Karl-Fisher method.
# 200 mg of gatifloxacin form J were put in 80% relative humidity for 1 week. The resulting sample was analyzed by XRD, TGA and KF.
# 200 mg of gatifloxacin omega form were put in 80% relative humidity for 1 week, and then analyzed by XRD and by TGA.
# [3] = as reported in U.S. Pat. No. 5,880,283; cited from earlier work
# [4] = among forms of U.S. Pat. No. 6,413,969, cited from earlier work
# [5] = Stability of E1 dihydrate against transformation to sesquihydrate on storage (PXRD); type: physicochemical
# Experimental: A suitable method to determine the presence of gatifloxacin sesquihydrate in gatifloxacin form E1 is x-ray powder diffraction. Determination of presence of sesquihydrate in form E1 is feasible in the region 7° to 9° 2θ, where a peak of sesquihydrate appears at about 7.8° 2θ.
# Moreover, the dihydrate of the present invention is stable against transformation to the sesquihydrate when exposed at ambient temperature to 60% relative humidity for one week.
# The E1 dihydrate of the present invention is stable against transformation to sesquihydrate when stored at 30° C. and 60% relative humidity for 3 months.
# [6] = Stability of E1 in formulations; type: physicochemical; settings: in formulations at 30° C.
# Source text: The pharmaceutical composition can be in the form of a solid oral dosage form (e.g., compressed tablets or capsules), or it can be in the form of a liquid oral dosage form (e.g., a solution or oral suspension).
# [7] = after 80% relative humidity for 1 week
smiles,measurement,setting,value
"COc1c(N2CCNC(C)C2)c(F)cc2c(=O)c(C(=O)O)cn(C3CC3)c12 (stereo not shown) [form J, gatifloxacin]",form Obtained after heating (XRD),"[1]; 120° C., 1 h",omega
same,crystal structure of resulting sample (XRD),[2],sesquihydrate
same,KF water content of resulting sample,[2]; [7],6.6%
same,LOD of resulting sample (TGA),[2]; [7],7.8%
"COc1c(N2CCNC(C)C2)c(F)cc2c(=O)c(C(=O)O)cn(C3CC3)c12 (stereo not shown) [sesquihydrate, gatifloxacin]",form Obtained after heating (XRD),"[1]; 120° C., 1 h",T2RP + omega
same,hygroscopicity,[3],less hygroscopic
same,stability in manufacturing,[3],more stable in manufacturing
"COc1c(N2CCNC(C)C2)c(F)cc2c(=O)c(C(=O)O)cn(C3CC3)c12 (stereo not shown) [hemihydrate, gatifloxacin]",form Obtained after heating (XRD),"[1]; 120° C., 1 h",T2RP
same,hygroscopicity,[3],hygroscopic
"COc1c(N2CCNC(C)C2)c(F)cc2c(=O)c(C(=O)O)cn(C3CC3)c12 (stereo not shown) [form G, gatifloxacin]",form Obtained after heating (XRD),"[1]; 120° C., 1 h",Omega^1.
"COc1c(N2CCNC(C)C2)c(F)cc2c(=O)c(C(=O)O)cn(C3CC3)c12 (stereo not shown) [T1RP, gatifloxacin]",form Obtained after heating (XRD),"[1]; 120° C., 1 h",Hemihydrate
"COc1c(N2CCNC(C)C2)c(F)cc2c(=O)c(C(=O)O)cn(C3CC3)c12 (stereo not shown) [pentahydrate, gatifloxacin]",thermodynamic stability,[4],most thermodynamically stable form
same,aqueous solubility,[4]; room temperature,lowest aqueous solubility
"COc1c(N2CCNC(C)C2)c(F)cc2c(=O)c(C(=O)O)cn(C3CC3)c12 (stereo not shown) [E1 dihydrate, gatifloxacin]",stability against transformation to the sesquihydrate,"[5]; ambient temperature, 60% relative humidity, one week, PXRD",stable
same,stability against transformation to sesquihydrate,[5]; stored at 30° C. and 60% relative humidity for 3 months,stable
"COc1c(N2CCNC(C)C2)c(F)cc2c(=O)c(C(=O)O)cn(C3CC3)c12 (stereo not shown) [omega form, gatifloxacin]",crystal structure of resulting sample (XRD),[2],sesquihydrate
same,LOD of resulting sample (TGA),[2]; [7],7.7%
"COc1c(N2CCNC(C)C2)c(F)cc2c(=O)c(C(=O)O)cn(C3CC3)c12 (stereo not shown) [form E1, gatifloxacin]",form Obtained after heating (XRD),[1]; 100° C. for 1 hour,omega form
same,time stable in formulations,[6],at least 3 months
